Data reported in patent US20230227466A1, “SUBSTITUTED THIENOPYRIMIDINES THAT INTERACT WITH THE RAS SUPERFAMILY FOR THE TREATMENT OF CANCERS, INFLAMMATORY DISEASES, RASOPATHIES, AND FIBROTIC DISEASE” (SHY Therapeutics, LLC, priority 2020, published 2023).
Where two headings read alike, the source gives them in different places.

Assays:
[1] = system: MIA-PaCa-2 pancreatic cancer cell line (KRAS G12C); test: Cell proliferation assay (CellTiter 96 Aqueous One); assay type: cell-based; details: Homo sapiens; for IC50: MIA PaCa-2, MIA PaCa-2; for inhibition at 10 µM: MIA PaCa-2, read-out: % inh cell proliferation (10 μM) in MIA PaCa-2
Procedure: Cell lines: Human tumor-derived cell lines were purchased from American Type Culture Collection. Human tumor-derived pancreatic cancer cell line MIA-PACA2 (having a KRAS G12C mutation) and Panc-1 (having a KRAS G12D mutation), and Human non-small cell lung cancer (NSCLC) cell line A549 (having a KRAS G12S mutation) were grown in complete DMEM-High Glucose. Human colon cancer cell line SW-620 (having a KRAS G12V mutation) was grown in RPMI. All cell lines were supplemented with penicillin (100 U/mL), streptomycin (100 μg/mL), and 10% heat-inactivated FBS at 37° C. in a humidified incubator with 5% CO2.
Method: Cells were plated at 2000 to 5000 cells/well density in 96-wells plate and cultured overnight. Small molecules to be tested were added to the cells in the final concentration of 10 μM in the presence of 0.3% DMSO and 10% FBS, and incubated for 2-4 days at 37° C. in a humidified incubator with 5% CO2. For IC50 value determination, serial dilutions of compounds were added to cells under the same conditions.
Assay: At the end of the incubation period, cell viability was measured using the CellTiter 96® Aqueous One Solution Cell Proliferation Assay according to manufacturer specifications (Promega, Madison, Wis.). The percentage of small molecules inhibition of cellular proliferation was calculated from raw data.

Rho-A = Rho-A (Homo sapiens, UniProt P61586); test: Ras GTP binding domain inhibition assay (labeled-GTP competition, cell-free); design: made in house
Description: (§1) This is a competitive binding assay. It involves the immobilization of a protein on solid phase, interaction with a small molecule drug candidate, and then competitive binding with a labeled native GTP or GDP ligand.
(§2) In theory, the assay is suitable for use with any GTP or GDP binding protein.
(§3) The following method was developed as specific assay for the following proteins: KRas wild type, KRas Q61H mutant, KRas G12C mutant, KRas G12D mutant, Rac-1, and Rho-A.
(§4) The small GTPases proteins: KRas wild type. KRas Q61H mutant, KRas G12C mutant, KRas G12D mutants, Rac-1, and Rho-A were expressed as His-tagged proteins. In addition, the Guanosine nucleotide Exchange Factor (GEF) Sos protein (residues 556-1049) was expressed as a His-tagged protein. In cells, the guanine nucleotide exchange factor Sos protein promotes activation of Ras proteins by stimulating an exchange of GDP for GTP. The inclusion of Sos to the Ras GTP binding domain inhibition assay may be considered as an alternative representation of physiological cellular conditions for evaluating the inhibitory activity of some of the tested small molecules.
(§5) For the assay, all purified small GTPases proteins were diluted in Buffer-I or Buffer-II to a final concentration of 10-30 μg/mL. 200 μL of each diluted protein was added to a nickel-coated 96-well plate and incubated overnight at 4° C. Then the protein solution was discarded and 200 μL of Buffer-I or Buffer-II was added to each well in the presence of 1% DMSO. Compounds to be tested were added to the protein-coated wells at final concentration of 20 μM, and incubated for 3 hours at room temperature with and without 10-30 μg/mL of Sos added to the final hour of the incubation. When performing IC50 measurements a serial dilution of all tested concentrations was added. Then Cy3-GTP or Cy5-GTP was added to each well to a final concentration of 100 nM. The labeled GTP was incubated for 45 minutes at room temperature. Following GTP incubation, wells were washed 3× in Buffer-I or Buffer-II and 200 μL of Buffer-I or Buffer-II was added to each well. Following washes, the amount of bound labeled-GTP was measured using a SpectraMax M3 (Molecular Devices).

Rac-1 = Rac-1 (Homo sapiens, UniProt P63000); test: as above; design: made in house
Description: as §1, §2, §3, §4, §5

KRas wild type = KRas wild type (Homo sapiens, UniProt P01116); test: as above; design: made in house
Description: as §1, §2, §3, §4, §5

KRas Q61H mutant = target: T1, KRas Q61H mutant (Homo sapiens, UniProt P01116, Q61H); test: as above
T1 construct: made in house
Description: as §1, §2, §3, §4, §5

KRas G12C mutant = target: T2, KRas G12C mutant (Homo sapiens, UniProt P01116, G12C); test: as above
T2 construct: made in house
Description: as §1, §2, §3, §4, §5

KRas G12D mutant = target: T3, KRas G12D mutant (Homo sapiens, UniProt P01116, G12D); test: as above
T3 construct: made in house
Description: as §1, §2, §3, §4, §5

[2] = with SOS, read-out: Rho-A + SOS: % inh.
[3] = without SOS, read-out: Rho-A: % inh.
[4] = with SOS, read-out: Rac-1 + SOS: % inh.
[5] = without SOS, read-out: Rac-1: % inh.
[6] = with SOS, read-out: KRas wild type + SOS: % inh.
[7] = without SOS, read-out: KRas wild type: % inh.
[8] = with SOS, read-out: KRas Q61H mutant + SOS: % inh.
[9] = without SOS, read-out: KRas Q61H mutant: % inh.
[10] = with SOS, read-out: KRas G12C mutant + SOS: % inh.
[11] = without SOS, read-out: KRas G12C mutant: % inh.
[12] = with SOS, read-out: KRas G12D mutant + SOS: % inh.
[13] = without SOS, read-out: KRas G12D mutant: % inh.

Row | Compound | IC50 [1] [µM] | inhibition at 10 µM [1] [%] | inhibition at 20 µM (Rho-A; [2]) [%] | inhibition at 20 µM (Rho-A; [3]) [%] | inhibition at 20 µM (Rac-1; [4]) [%] | inhibition at 20 µM (Rac-1; [5]) [%] | inhibition at 20 µM (KRas wild type; [6]) [%] | inhibition at 20 µM (KRas wild type; [7]) [%] | inhibition at 20 µM (KRas Q61H mutant; [8]) [%] | inhibition at 20 µM (KRas Q61H mutant; [9]) [%] | IC50 (KRas Q61H mutant; with SOS) [µM] | inhibition at 20 µM (KRas G12C mutant; [10]) [%] | inhibition at 20 µM (KRas G12C mutant; [11]) [%] | inhibition at 20 µM (KRas G12D mutant; [12]) [%] | inhibition at 20 µM (KRas G12D mutant; [13]) [%]
1 | CO[C@H]1CC[C@@H](Nc2nc(-c3nccn3C)nc3sccc23)C1 (racemic) [Compound 10, Rac-N-((1R,3S)-3-methoxycyclopentyl)-2-(1-methyl-1H-imidazol-2-yl)thieno[2,3-d]pyrimidin-4-amine] | > 10 | 26 to 50 | 76 to 100 | 76 to 100 | 76 to 100 | 76 to 100 | 76 to 100 | 51 to 75 | 76 to 100 | 51 to 75 | 5 to 10 | 76 to 100 | 76 to 100 | 51 to 75 | 51 to 75
2 | CO[C@H]1CC[C@@H](Nc2nc(C(N)=O)nc3sccc23)C1 (racemic) [Compound 11, Rac-4-(((1R,3S)-3-methoxycyclopentyl)amino)thieno[2,3-d]pyrimidine-2-carboxamide] | > 10 | 1 to 25 | 1 to 25 | 1 to 25 | 0 | 0 | 1 to 25 | 0 | 0 | 0 | > 10 | 1 to 25 | 1 to 25 | 0 | 1 to 25
3 | CO[C@H]1CC[C@@H](Nc2nc(C(=O)N3CCOCC3)nc3sccc23)C1 (racemic) [Compound 12, Rac-(4-(((1R,3S)-3-methoxycyclopentyl)amino)thieno[2,3-d]pyrimidin-2-yl)(morpholino)methanone] | > 10 | 1 to 25 | 1 to 25 | 1 to 25 | 1 to 25 | 0 | 1 to 25 | 0 | 0 | 1 to 25 | > 10 | 1 to 25 | 1 to 25 | 0 | 1 to 25
4 | CO[C@H]1CC[C@@H](Nc2nc(C(=O)NC(C)C)nc3sccc23)C1 (racemic) [Compound 13, Rac-N-isopropyl-4-(((1R,3S)-3-methoxycyclopentyl)amino)thieno[2,3-d]pyrimidine-2-carboxamide] | > 10 | 0 | 1 to 25 | 1 to 25 | 0 | 1 to 25 | 1 to 25 | 0 | 0 | 0 | > 10 | 0 | 0 | 0 | 1 to 25
5 | COCCNC(=O)c1nc(N[C@@H]2CC[C@H](OC)C2)c2ccsc2n1 (racemic) [Compound 14, rac-4-(((1R,3S)-3-Methoxycyclopentyl)amino)-N-(2-methoxyethyl)thieno[2,3-d]pyrimidine-2-carboxamide] | > 10 | 0 | 1 to 25 | 1 to 25 | 0 | 0 | 0 | 0 | 1 to 25 | 0 | > 10 | 0 | 0 | 1 to 25 | 1 to 25
6 | CO[C@H]1CC[C@@H](Nc2nc(C(=O)Nc3ccccc3)nc3sccc23)C1 (racemic) [Compound 15, rac-4-(((1R,3S)-3-Methoxycyclopentyl)amino)-N-phenylthieno[2,3-d]pyrimidine-2-carboxamide] | > 10 | 1 to 25 | 0 | 0 | 0 | 0 | 0 | 1 to 25 | 0 | 1 to 25 | > 10 | 0 | 1 to 25 | 0 | 0
7 | CO[C@H]1CC[C@@H](Nc2nc(C(=O)Nc3ccccn3)nc3sccc23)C1 (racemic) [Compound 16, rac-4-(((1R,3S)-3-Methoxycyclopentyl)amino)-N-(pyridin-2-yl)thieno[2,3-d]pyrimidine-2-carboxamide] | > 10 | 1 to 25 | 1 to 25 | 0 | 0 | 1 to 25 | 0 | 1 to 25 | 0 | 1 to 25 | > 10 | 1 to 25 | 1 to 25 | 1 to 25 | 1 to 25
8 | CO[C@H]1CC[C@@H](Nc2nc(C(N)=O)nc3sc(-c4ccn(C(C)C)n4)cc23)C1 (racemic) [Compound 17, Rac-6-(1-isopropyl-1H-pyrazol-3-yl)-4-(((1R,3S)-3-methoxycyclopentyl)amino)thieno[2,3-d]pyrimidine-2-carboxamide] | > 10 | 1 to 25 | 0 | 26 to 50 | 1 to 25 | 0 | 1 to 25 | 1 to 25 | 0 | 1 to 25 | > 10 | 0 | 0 | 0 | 0
9 | CO[C@H]1CC[C@@H](Nc2nc(C(=O)N3CCCC3)nc3sccc23)C1 (racemic) [Compound 25, Rac-(4-(((1R,3S)-3-Methoxycyclopentyl)amino)thieno[2,3-d]pyrimidin-2-yl)(pyrrolidin-1-yl)methanone] | > 10 | 1 to 25 | 0 | 0 | 0 | 0 | 0 | 0 | 0 | 0 |  | 0 | 0 | 0 | 0
